# According to US6956039B2, “Nitrogenous heterocylic compounds” (Millennium Pharmaceuticals, Inc., priority 2000, dated 2005):
# Tests used:
# β-PDGFR [1] = biological target: T1, β-PDGFR (Homo sapiens, UniProt P09619); experiment: MG63 phosphorylation assay (endogenous β-PDGFR phosphorylation, PDGF-BB stimulation with human plasma); type: cell-based; parameters: This assay is for measuring endogenous β-PDGFR phosphorylation in MG63 cells; endogenous in cells; host or cells: MG63 human osteosarcoma cells (ATCC); settings: MG63 human osteosarcoma cells; PDGF-BB stimulation in presence of 45% human plasma; PDGF receptor phosphorylation; read-out: MG63 w/human plasma IC50
# T1 sequence (P09619 33-1106): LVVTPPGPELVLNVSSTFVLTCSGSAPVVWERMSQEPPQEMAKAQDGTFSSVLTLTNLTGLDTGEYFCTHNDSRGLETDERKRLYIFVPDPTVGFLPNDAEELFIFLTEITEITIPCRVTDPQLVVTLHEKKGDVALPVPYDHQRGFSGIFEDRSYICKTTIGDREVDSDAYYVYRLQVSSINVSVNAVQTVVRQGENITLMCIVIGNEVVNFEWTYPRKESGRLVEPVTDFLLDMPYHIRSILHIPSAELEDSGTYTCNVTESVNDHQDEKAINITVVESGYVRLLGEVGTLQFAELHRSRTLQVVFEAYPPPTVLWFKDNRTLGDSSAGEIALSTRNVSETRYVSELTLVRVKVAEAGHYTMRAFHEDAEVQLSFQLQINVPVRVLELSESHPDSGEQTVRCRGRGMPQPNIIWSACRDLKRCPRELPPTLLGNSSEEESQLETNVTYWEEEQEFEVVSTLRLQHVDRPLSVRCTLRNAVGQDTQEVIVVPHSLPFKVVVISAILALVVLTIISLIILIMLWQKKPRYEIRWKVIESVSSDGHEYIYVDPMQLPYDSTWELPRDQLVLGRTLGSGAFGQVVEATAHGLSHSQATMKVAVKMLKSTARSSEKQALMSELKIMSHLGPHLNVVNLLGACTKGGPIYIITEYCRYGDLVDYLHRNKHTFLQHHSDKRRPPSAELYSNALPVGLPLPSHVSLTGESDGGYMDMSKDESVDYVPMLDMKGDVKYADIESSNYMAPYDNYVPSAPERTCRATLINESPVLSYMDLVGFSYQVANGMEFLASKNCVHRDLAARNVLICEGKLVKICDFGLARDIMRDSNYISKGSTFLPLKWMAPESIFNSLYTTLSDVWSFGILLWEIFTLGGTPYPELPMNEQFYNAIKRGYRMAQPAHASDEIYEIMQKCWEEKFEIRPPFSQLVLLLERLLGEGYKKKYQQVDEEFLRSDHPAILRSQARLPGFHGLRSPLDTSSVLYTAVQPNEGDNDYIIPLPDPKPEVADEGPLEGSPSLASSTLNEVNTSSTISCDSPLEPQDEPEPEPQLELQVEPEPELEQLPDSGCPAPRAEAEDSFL
# Protocol: For the phosphorylation assay according to the invention, HR5 cells were grown to confluency in 96-well microtiter plates under standard tissue culture conditions, followed by serum-starvation for 16 hours. Quiescent cells were incubated at 37° C. without or with increasing concentrations of the test compound (0.01-30 uM) for 30 minutes followed by the addition of 8 nM PDGF BB for 10 minutes. Cells were lysed in 100 mM Tris, pH7.5, 750 mM NaCl, 0.5% Triton X-100, 10 mM sodium pyrophosphate, 50 mM NaF, 10 ug/ml aprotinin, 10 ug/ml leupeptin, 1 mM phenylmethylsulfonyl fluoride, 1 mM sodium vanadate, and the lysate was cleared by centrifugation at 15,000×g for 5 minutes. Clarified lysates were transferred into a second microtiter plate in which the wells were previously coated with 500 ng/well of 1B5B11 anti-β-PDGFR mAb, and then incubated for two hours at room temperature. After washing three times with binding buffer (0.3% gelatin, 25 mM Hepes pH 7.5, 100 mM NaCl, 0.01% Tween-20), 250 ng/ml of rabbit polyclonal anti-phosphotyrosine antibody (Transduction Laboratory) was added and plates were incubated at 37° C. for 60 minutes. […] Wells were washed prior to adding ABTS (Sigma), and the rate of substrate formation was monitored at 650 nm. […]
# β-PDGFR [2] = biological target: T1, β-PDGFR; experiment: HR5 phosphorylation assay (CHO cells overexpressing human β-PDGFR); type: cell-based; parameters: host or cells: CHO cells (HR5 line); settings: 8 nM PDGF BB for 10 minutes, PDGF receptor phosphorylation
# Protocol: The HR5 cell line is a cell line of CHO cells engineered to overexpress human β-PDGFR, which cell line is available from the ATCC. The expression level of β-PDGFR in HR5 cells is around 5×10^4 receptor per cell. For the phosphorylation assay according to the invention, HR5 cells were grown to confluency in 96-well microtiter plates under standard tissue culture conditions, followed by serum-starvation for 16 hours. Quiescent cells were incubated at 37° C. without or with increasing concentrations of the test compound (0.01-30 uM) for 30 minutes followed by the addition of 8 nM PDGF BB for 10 minutes. Cells were lysed in 100 mM Tris, pH7.5, 750 mM NaCl, 0.5% Triton X-100, 10 mM sodium pyrophosphate, 50 mM NaF, 10 ug/ml aprotinin, 10 ug/ml leupeptin, 1 mM phenylmethylsulfonyl fluoride, 1 mM sodium vanadate, and the lysate was cleared by centrifugation at 15,000×g for 5 minutes. Clarified lysates were transferred into a second microtiter plate in which the wells were previously coated with 500 ng/well of 1B5B11 anti-β-PDGFR mAb, and then incubated for two hours at room temperature. […] Wells were washed prior to adding ABTS (Sigma), and the rate of substrate formation was monitored at 650 nm.
compound,measurement,setting,value
"c1nc(N2CCNCC2)c2ccc(OCCN3CCCCC3)cc2n1 [Example 1, 4-piperazinyl-7-(2-piperidylethoxy)quinazoline]",IC50,β-PDGFR [1],103 nM
same,IC50,β-PDGFR [2],150 nM
